# Assay results as given in PMC3299860 (Antiviral Research, 2012).
# “Also recorded” adds a separate entry of the source.
# What was measured:
# A/Fukui/20/2004 (H3N2) = type: biochemical, human influenza virus
# [1] = tested on: A/New Jersey/15/2007 (H1N1); type: biochemical, human influenza virus
compound,measurement,setting,value
"CC(=O)N[C@H]1[C@H]([C@H](O)[C@H](O)CO)OC(C(=O)O)=C[C@@H]1N=C(N)N [zanamivir, 4-guanidino-Neu5Ac2en]",susceptibility to NAI (in words),A/Fukui/20/2004 (H3N2),susceptible
same,susceptibility to NAI (in words),[1],zanamivir-sensitive; also recorded: susceptible
